{
  "source": "patent US20260159536A1",
  "about": "“AKR1C3-ACTIVATED DNA ALKYLATING AGENT, AND MEDICAL APPLICATION THEREOF” (ASCENTAWITS PHARMACEUTICALS, LTD., priority 2021, published 2026)",
  "key": {"[1]": {"test": "Blood-brain barrier assay of Compound A (plasma and brain concentration, PK)", "assay_type": "in vivo, CD-1 mice", "settings": "for MRT inf: read-out: MRTInf_obs; for half-life: read-out: T½ (converted)", "description": "Three CD-1 mice were administered 1 mg/kg of the test Compound A intravenously at each time point. Blood and brain tissue were taken at 5 min, 15 min, 1 h, 2 h, 4 h and 8 h after administration.\nThe PK (Pharmacokinetic) parameters obtained from the above assays were listed as follows, as shown in Table 33 and Table 34. • PK parameters, pharmacokinetic parameters. • T1/2, half-life. • Cl-obs, plasma clearance. • C0, starting concentration. • AUClast, area under the concentration-time curve from start of administration time to the last point. • AUCInf, area under the concentration-time curve from start of administration to the time at infinity. • Tmax, time to maximum observed plasma concentration. • Cmax, concentration to maximum observed plasma concentration. • MRTlnf-obs, represents the mean residence time from the start of administration to the time of theoretical extrapolation to infinity. • AUClnf Ration (Brain/Plasma), the ratio of the area under the concentration-time curve of serum and brain tissue from the start of administration to the time at infinity. • Unit, unit. • Mean, average value."}, "[2]": {"test": "Plasma stability test, monkey", "assay_type": "in vitro ADME", "settings": "37° C.", "description": "The pH of the plasma was checked and recorded. Note: a.\nThe final concentration of solvent was 0.5%.\nThe assay was performed in duplicate. […] The tubes were mixed by vortex for 5 minutes."}, "[3]": {"settings": "CD-1, mouse, iv, brain tissues, 1 mg/kg intravenously, Mean"}, "[4]": {"settings": "CD-1, mouse, iv, plasma, 1 mg/kg intravenously, Mean"}, "[5]": {"settings": "IV 1 mg/kg, 0.083 h, individual animals, 1 mg/kg"}, "[6]": {"settings": "IV 1 mg/kg, 0.25 h, individual animals, 1 mg/kg"}, "[7]": {"settings": "IV 1 mg/kg, 1 h, individual animals, 1 mg/kg"}, "[8]": {"settings": "IV 1 mg/kg, 2 h, individual animals, 1 mg/kg"}, "[9]": {"settings": "IV 1 mg/kg, 4 h, individual animals, 1 mg/kg"}, "[10]": {"settings": "IV 1 mg/kg, 8 h, individual animals, 1 mg/kg"}, "[11]": {"settings": "brain tissues, 1 mg/kg intravenously, Mean"}, "[12]": {"settings": "plasma, 1 mg/kg intravenously, Mean"}},
  "note": "Values joined by “and” are separate entries in the source; they are usually repeats but may differ in a detail not shown here. Equal entries are not always repeated. Where two headings read alike, the source gives them in different places.",
  "data": [
    {"smiles": "O=[N+]([O-])c1ccc(C(OP(=O)(N2CC2)N2CC2)C(F)(F)F)cc1Oc1ccc(-c2ccc(F)cc2)c(F)c1", "note": "(racemic) [Compound A]", "values": [
      {"measurement": "Kp", "setting": "[1]; CD-1, mouse, brain/plasma, iv, 1 mg/kg, 1 mg/kg intravenously, Mean, read-out: AUCInf Ratio (Brain/Plasma)", "value": 0.8},
      {"measurement": "Kp at 0.083 h", "setting": "[1]; CD-1, mouse, brain/plasma, iv, 1 mg/kg, IV 1 mg/kg, 0.083 h, individual animals, read-out: Ratio (Brain/Plasma)", "value": 1.17},
      {"measurement": "Kp at 0.083 h", "setting": "[1]; CD-1, mouse, brain/plasma, iv, 1 mg/kg, IV 1 mg/kg, 0.083 h, mean of 3 animals, read-out: Ratio (Brain/Plasma), Mean", "value": 1.28},
      {"measurement": "Kp at 0.25 h", "setting": "[1]; CD-1, mouse, brain/plasma, iv, 1 mg/kg, IV 1 mg/kg, 0.25 h, individual animals, read-out: Ratio (Brain/Plasma)", "value": 1.13},
      {"measurement": "Kp at 0.25 h", "setting": "[1]; CD-1, mouse, brain/plasma, iv, 1 mg/kg, IV 1 mg/kg, 0.25 h, mean of 3 animals, read-out: Ratio (Brain/Plasma), Mean", "value": 1.15},
      {"measurement": "Kp at 1 h", "setting": "[1]; CD-1, mouse, brain/plasma, iv, 1 mg/kg, IV 1 mg/kg, 1 h, individual animals, read-out: Ratio (Brain/Plasma)", "value": 0.8},
      {"measurement": "Kp at 1 h", "setting": "[1]; CD-1, mouse, brain/plasma, iv, 1 mg/kg, IV 1 mg/kg, 1 h, mean of 3 animals, read-out: Ratio (Brain/Plasma), Mean", "value": 0.76},
      {"measurement": "Kp at 2 h", "setting": "[1]; CD-1, mouse, brain/plasma, iv, 1 mg/kg, IV 1 mg/kg, 2 h, individual animals, read-out: Ratio (Brain/Plasma)", "value": 0.71},
      {"measurement": "Kp at 2 h", "setting": "[1]; CD-1, mouse, brain/plasma, iv, 1 mg/kg, IV 1 mg/kg, 2 h, mean of 3 animals, read-out: Ratio (Brain/Plasma), Mean", "value": 0.67},
      {"measurement": "Kp at 4 h", "setting": "[1]; CD-1, mouse, brain/plasma, iv, 1 mg/kg, IV 1 mg/kg, 4 h, individual animals, read-out: Ratio (Brain/Plasma)", "value": 0.74},
      {"measurement": "Kp at 4 h", "setting": "[1]; CD-1, mouse, brain/plasma, iv, 1 mg/kg, IV 1 mg/kg, 4 h, mean of 3 animals, read-out: Ratio (Brain/Plasma), Mean", "value": 0.78},
      {"measurement": "Kp at 8 h", "setting": "[1]; CD-1, mouse, brain/plasma, iv, 1 mg/kg, IV 1 mg/kg, 8 h, individual animals, read-out: Ratio (Brain/Plasma)", "value": 0.48},
      {"measurement": "Kp at 8 h", "setting": "[1]; CD-1, mouse, brain/plasma, iv, 1 mg/kg, IV 1 mg/kg, 8 h, mean of 3 animals, read-out: Ratio (Brain/Plasma), Mean", "value": 0.52},
      {"measurement": "Cmax", "setting": "[1]; [3]", "value": 543, "unit": "ng/g"},
      {"measurement": "Tmax", "setting": "[1]; [3]", "value": 4.8, "unit": "min"},
      {"measurement": "MRT inf", "setting": "[1]; [3]", "value": 2.99, "unit": "h"},
      {"measurement": "half-life", "setting": "[1]; [3]", "value": 2.8, "unit": "h"},
      {"measurement": "AUC(0-inf)", "setting": "[1]; [4]", "value": 1200, "unit": "ng·h/mL"},
      {"measurement": "AUC(0-t)", "setting": "[1]; [4]", "value": 980, "unit": "ng·h/mL"},
      {"measurement": "C0", "setting": "[1]; [4]", "value": 453, "unit": "ng/mL"},
      {"measurement": "MRT inf", "setting": "[1]; [4]", "value": 4.37, "unit": "h"},
      {"measurement": "half-life", "setting": "[1]; [4]", "value": 3.64, "unit": "h"},
      {"measurement": "concentration at 0.083 h", "setting": "[1]; CD-1, mouse, plasma, iv, 1 mg/kg, IV 1 mg/kg, 0.083 h, individual animals, read-out: Plasma concentration", "value": 460, "unit": "ng/mL"},
      {"measurement": "concentration at 0.25 h", "setting": "[1]; CD-1, mouse, plasma, iv, 1 mg/kg, IV 1 mg/kg, 0.25 h, individual animals, read-out: Plasma concentration", "value": 372, "unit": "ng/mL"},
      {"measurement": "concentration at 1 h", "setting": "[1]; CD-1, mouse, plasma, iv, 1 mg/kg, IV 1 mg/kg, 1 h, individual animals, read-out: Plasma concentration", "value": 229, "unit": "ng/mL"},
      {"measurement": "concentration at 2 h", "setting": "[1]; CD-1, mouse, plasma, iv, 1 mg/kg, IV 1 mg/kg, 2 h, individual animals, read-out: Plasma concentration", "value": 150, "unit": "ng/mL"},
      {"measurement": "concentration at 4 h", "setting": "[1]; CD-1, mouse, plasma, iv, 1 mg/kg, IV 1 mg/kg, 4 h, individual animals, read-out: Plasma concentration", "value": 96.4, "unit": "ng/mL"},
      {"measurement": "concentration at 8 h", "setting": "[1]; CD-1, mouse, plasma, iv, 1 mg/kg, IV 1 mg/kg, 8 h, individual animals, read-out: Plasma concentration", "value": 48.8, "unit": "ng/mL"},
      {"measurement": "Brain concentration", "setting": "[1]; [5]", "value": "540.75 ng/g and 549.95 ng/g"},
      {"measurement": "Plasma concentration", "setting": "[1]; [5]", "value": "400.55 ng/mL and 416.19 ng/mL"},
      {"measurement": "Ratio (Brain/Plasma)", "setting": "[1]; [5]", "value": "1.35 and 1.32"},
      {"measurement": "Brain concentration", "setting": "[1]; [6]", "value": "489.60 ng/g and 371.38 ng/g"},
      {"measurement": "Plasma concentration", "setting": "[1]; [6]", "value": "382.24 ng/mL and 384.54 ng/mL"},
      {"measurement": "Ratio (Brain/Plasma)", "setting": "[1]; [6]", "value": "1.35 and 0.97"},
      {"measurement": "Brain concentration", "setting": "[1]; [7]", "value": "188.68 ng/g and 169.85 ng/g"},
      {"measurement": "Plasma concentration", "setting": "[1]; [7]", "value": "238.84 ng/mL and 249.07 ng/mL"},
      {"measurement": "Ratio (Brain/Plasma)", "setting": "[1]; [7]", "value": "0.79 and 0.68"},
      {"measurement": "Brain concentration", "setting": "[1]; [8]", "value": "94.27 ng/g and 77.50 ng/g"},
      {"measurement": "Plasma concentration", "setting": "[1]; [8]", "value": "134.42 ng/mL and 131.84 ng/mL"},
      {"measurement": "Ratio (Brain/Plasma)", "setting": "[1]; [8]", "value": "0.70 and 0.59"},
      {"measurement": "Brain concentration", "setting": "[1]; [9]", "value": "68.47 ng/g and 42.73 ng/g"},
      {"measurement": "Plasma concentration", "setting": "[1]; [9]", "value": "74.91 ng/mL and 63.17 ng/mL"},
      {"measurement": "Ratio (Brain/Plasma)", "setting": "[1]; [9]", "value": "0.91 and 0.88"},
      {"measurement": "Brain concentration", "setting": "[1]; [10]", "value": "21.85 ng/g and 18.85 ng/g"},
      {"measurement": "Plasma concentration", "setting": "[1]; [10]", "value": "49.05 ng/mL and 29.91 ng/mL"},
      {"measurement": "Ratio (Brain/Plasma)", "setting": "[1]; [10]", "value": "0.45 and 0.83"},
      {"measurement": "AUCInf", "setting": "[1]; [11]", "value": 872.43, "unit": "ng·h/g"},
      {"measurement": "AUClast", "setting": "[1]; [11]", "value": 785.85, "unit": "ng·h/g"},
      {"measurement": "Cl_obs", "setting": "[1]; [12]", "value": 13.85, "unit": "mL/min/kg"},
      {"measurement": "Vss_obs", "setting": "[1]; [12]", "value": 3.63, "unit": "L/kg"},
      {"measurement": "Percentage remaining after 2 hours in plasma", "setting": "[2]; Monkey plasma, 5 μM", "value": 79.20, "unit": "%"},
      {"measurement": "remained in plasma after 2 hours", "setting": "[2]; monkey plasma", "value": 79.20, "unit": "%"}
    ]}
  ]
}
